Data from paper PMC6864407 (Pharmacology Research & Perspectives, 2019).

Legend:
in vivo = conditions: rat, topical or ocular; for half-life: t1/2, rat
Protocol: (§2) The both eyes (dosed eye and nondosed eye) were collected and washed by water, and then the eye tissues (the choroid/sclera and retina) were collected.
(§3) An aliquot of acetonitrile solution containing an internal standard was added to the plasma sample and mixed. After centrifugation, supernatant was mixed with 10 mmol/L ammonium acetate solution to prepare a sample for determination of drug concentration by liquid chromatography‐tandem mass spectrometry (LC/MS/MS). An aliquot of 50 vol% methanol was added to the eye tissues, and then homogenized by a beads shocker to prepare homogenate samples. An aliquot of the acetonitrile solution containing the internal standard was added to the homogenate samples and mixed. After centrifugation, supernatant was mixed with 10 mmol/L ammonium acetate solution to prepare samples for the determination of drug concentrations.
(§4) LC/MS/MS system consisted of ACQUITY UPLC system (Waters Corporation) and QTRAP6500 (AB SCIEX) was used for the determination of drug concentrations. The prepared samples were separated by ACQUITY UPLC peptide BEH C18 column (1.7 µm, 2.1 × 50 mm) (Waters Corporation, Milford, MA), with mobile phase A: 10 mmol/L ammonium acetate solution and mobile phase B: acetonitrile. After injection of the prepared samples to LC/MS/MS, the samples were eluted (0.2 mL/minutes) with 30% B followed 0.10 minutes isocratic period; 3.90 minutes linear gradient to 70% B; 0.01 minutes linear gradient to 30% B; and 1.49 minutes isocratic period. Multiple reaction monitoring was performed by using an atmospheric pressure chemical ionization probe, and monitor ion of regorafenib and pazopanib were 482.958/270.000 (m/z, Q1/Q3) and 438.184/356.900 (m/z, Q1/Q3), respectively.
(§5) The pharmacokinetic parameters of regorafenib and pazopanib in the eye tissues and plasma were calculated by average concentrations in the eye tissues and plasma. Maximum concentration (Cmax) and the time to reach Cmax (tmax) were obtained directly from the observed values. Log‐transformed concentrations were plotted against time. The elimination rate constant (ke) was estimated by linear least‐squares method using the last 2 or 3 observed data points. Apparent half‐life (t1/2) was obtained as ln2/ke. Area under the concentration vs time curve (AUC) from time 0 to the observed data point (AUC0‐t) was calculated using the linear trapezoidal method. AUC after the last data point was estimated by extrapolating with the ke and added up with AUC0‐t to calculate AUC from time 0 to infinity (AUC0‐∞).

[1] = Pharmacokinetic study in rats after single ocular instillation; conditions: rat; for AUC0‐t / AUC0‐∞ / AUC: single ocular instillation, 10 μL/eye; for AUC0‐t / AUC0‐∞ / Concentration / AUC: regorafenib 21.2 mg/mL or pazopanib 4.9 mg/mL; for Concentration: choroid/sclera, 0.01 mL; for choroid/sclera concentration: 0.5 hours after administration; for concentration at 0.5 h: topical; for half-life / Tmax / AUC: topical or ocular;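 on all read-outs here: drug levels in plasma and homogenized choroid/sclera and retina quantified by LC/MS/MS, parameters derived from mean concentrations, t1/2 from terminal log-linear slope, AUC via linear trapezoids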
Protocol: as §2, §3, §4, §5

[2] = Pharmacokinetic study in rabbits after single ocular instillation; conditions: rabbit, choroid/retina, 1.5 h, regorafenib 24.1 mg/mL or pazopanib 5.0 mg/mL, 0.02 mL
Protocol: (§1) In the rabbit and monkey studies, sample preparation and determination of drug concentrations were performed in the same manner for the rat pharmacokinetic study.

[3] = Pharmacokinetic study (ocular distribution) in monkeys after single ocular instillation; conditions: monkey, 4 h, regorafenib 17.1 mg/mL (50 μL/eye) or pazopanib 5.0 mg/mL (30 μL/eye)
Protocol: as §1

neovascular AMD = conditions: eye‐drop formulations; cited from earlier work
[4] = test system: VEGF‐induced fluorescein leakage; parameters: method as in PMID 23169884; conditions: ocular instillation in rabbits; cited from earlier work
laser‐induced CNV = assay: Laser‐induced monkey CNV model; conditions: for Change in incidence of Grade 4 lesions between Day‐1 and Day35: Fisher's exact test, Day‐1 vs Day 35; for Percentage of Grade 4 lesion: aflibercept 500 μg/eye intravitreal once, mean of 6 eyes
Protocol: Pharmacological study in laser‐induced monkey CNV model was conducted by referring to and optimizing the previous researches.28, 29, 30 Animals were allocated to groups to minimize bias in the incidence and severity of CNV lesions and body weight between the groups.
After the induction of mydriasis by instillation of Mydrin‐P ophthalmic solution has been confirmed, animals were anesthetized by intramuscular injection with a mixture solution of ketamine hydrochloride/xyladine (7/1, v/v). A fundus contact lens (Centralis Direct; Volk Optical Inc) was attached to the cornea with Scopisol solution and the position of the macula was confirmed. Laser was irradiated on the macula to induce CNV (8 sites per eye, 6 eyes per group). The laser irradiation conditions were as follows; wavelength: 532 nm, spot size: 80 μm, irradiation time: 0.1 seconds, and laser output: 1000 mW. The laser irradiation was conducted 21 days before the initiation of ocular instillation of test articles.
Aflibercept (500 μg/eye) was administered by intravitreal injection to the animals once 22 days after the laser irradiation.
In the aflibercept dosed group, fluorescein fundus angiography and CNV grade evaluation were conducted at the same time points in eye‐drops dosed groups.
Fluorescite Intravenous Injection 500 mg was administered into the cephalic vein under mydriasis and anesthesia. Photographs of fundus were taken with a fundus camera (VX‐10α; Kowa Co., Ltd., Aichi, Japan) approximately 1, 3, and 5 minutes after the administration of fluorescein. Each CNV lesion was graded as follows; Grade 1: no hyperfluorescence, Grade 2: hyperfluorescence without leakage, Grade 3: hyperfluorescence in the early (1 minute after administration of fluorescein) or midtransit (3 minutes after administration of fluorescein) images and late (5 minutes after administration of fluorescein) leakage, Grade 4: bright hyperfluorescence in the early or midtransit images and late leakage beyond the treated area in reference to the previous studies.28, 29, 30 The incidences of Grade 1, Grade 2, Grade 3 and Grade 4 lesions in the each eye (6 eyes per group) were calculated by the following equation, the incidence of grade lesion (%) = the number of grade lesions/ 8 × 100. The mean value of the incidences of Grade 4 lesions was calculated from 6 individual data in each group.
Fisher's exact test was performed for the incidence of Grade 4 lesions between Day‐1 and Day 35 in each group. MiTOX System (Mitsui E&S Systems Research Inc (former company name; Mitsui Zosen Systems Research Inc) was used for the statistical analysis at a two‐sided significance level of 5%.

melanin = test system: melanin; parameters: method as in PMID 23385800; conditions: cited from earlier work
[5] = test system: choroidal neovascularization; parameters: method as in PMID 21620822; conditions: after ocular instillation in rats; cited from earlier work
[6] = in vivo, choroid/sclera of dosed eye, single ocular instillation, regorafenib 21.2 mg/mL or pazopanib 4.9 mg/mL, 10 μL/eye
[7] = in vivo, plasma, single ocular instillation, regorafenib 21.2 mg/mL or pazopanib 4.9 mg/mL, 10 μL/eye
[8] = choroid/sclera of the dosed eye

CNC(=O)c1cc(Oc2ccc(NC(=O)Nc3ccc(Cl)c(C(F)(F)F)c3)c(F)c2)ccn1.O [Regorafenib, 4‐[4‐ ({[4‐Chloro‐3‐(trifluoromethyl)phenyl]carbamoyl}amino)‐3‐fluorophenoxy]‐N‐methylpyridine‐2‐carboxamide monohydrate]
AUC (in vivo; in vivo, AUC0‐t, plasma, single ocular instillation, regorafenib 21.2 mg/mL or pazopanib 4.9 mg/mL, 10 μL/eye): 1010 ng·h/mL
AUC (in vivo; in vivo, AUC0‐∞, plasma, single ocular instillation, regorafenib 21.2 mg/mL or pazopanib 4.9 mg/mL, 10 μL/eye): 1060 ng·h/mL
Cmax (in vivo; [6]): 1310 ng/g
Cmax (in vivo; [7]): 38.6 ng/mL
Cmax (in vivo; in vivo, retina of dosed eye, single ocular instillation, regorafenib 21.2 mg/mL or pazopanib 4.9 mg/mL, 10 μL/eye): 28 ng/g
half-life (in vivo; [6]): 1780 min
half-life (in vivo; [7]): 1430 min
Tmax (in vivo; in vivo, tmax): 0.5 h
Tmax (in vivo; in vivo, tmax, plasma, single ocular instillation, regorafenib 21.2 mg/mL or pazopanib 4.9 mg/mL, 10 μL/eye): 7 h
Tmax (in vivo; in vivo, tmax, retina of dosed eye, single ocular instillation, regorafenib 21.2 mg/mL or pazopanib 4.9 mg/mL, 10 μL/eye): 7 h
AUC0‐t ([1]; choroid/sclera of dosed eye): 15 300 h × ng/g
AUC0‐∞ ([1]; choroid/sclera of dosed eye): 16 400 h × ng/g
Concentration ([1]; dosed eye, 1.5 h): 552 ng/g
Concentration ([1]; dosed eye, 4 h): 340 ng/g
Concentration ([1]; nondosed eye, 1.5 h): 29.1 ng/g
Concentration ([1]; nondosed eye, 4 h): 72.3 ng/g
choroid/sclera concentration ([1]; dosed eye): 1310 ng/g
choroid/sclera concentration ([1]; nondosed eye): 129 ng/g
AUC0‐t ([1]; retina of dosed eye): 517 ng·h/g
Concentration ([2]; dosed eye): BLQ (<1) ng/g
Concentration ([2]; nondosed eye): BLQ (<1) ng/g
Concentration ([3]; choroid, nondosed eye): BLQ (<3) ng/g
Concentration ([3]; cornea, dosed eye): 350 ng/g
Concentration ([3]; cornea, nondosed eye): BLQ (<3) ng/g
Concentration ([3]; iris/ciliary body, dosed eye): 49.4 ng/g
Concentration ([3]; iris/ciliary body, nondosed eye): BLQ (<3) ng/g
Concentration ([3]; retina, dosed eye): BLQ (<3) ng/g
Concentration ([3]; retina, nondosed eye): BLQ (<3) ng/g
Clinical efficacy of eye‐drop formulation in neovascular AMD (neovascular AMD): lack of efficacy

Cc1ccc(Nc2nccc(N(C)c3ccc4c(C)n(C)nc4c3)n2)cc1S(N)(=O)=O.Cl [Pazopanib, 5‐[[4‐[(2,3‐dimethylindazol‐6‐yl)‐methylamino]pyrimidin‐2‐yl]amino]‐2‐methylbenzenesulfonamide hydrochloride]
Tmax (in vivo; [8]): 4 h
AUC0‐t ([1]; choroid/sclera of dosed eye): 42 100 h × ng/g
AUC0‐∞ ([1]; choroid/sclera of dosed eye): 112 000 h × ng/g
concentration at 0.5 h [1, 8]: 293 ng/g
half-life [1, 8]: 10.2 days
concentration at 0.5 h ([1]; choroid/sclera of the nondosed eye): 11.3 ng/g
Tmax ([1]; plasma): 0.5 h
half-life ([1]; plasma): 0.838 days
AUC ([1]; plasma, AUC0‐t): 1280 ng·h/mL
AUC ([1]; plasma, AUC0‐∞): 1300 ng·h/mL
AUC0‐t ([1]; retina of dosed eye): 3450 ng·h/g
AUC0‐∞ ([1]; retina of dosed eye): 6660 ng·h/g
Tmax ([1]; retina of the dosed eye): 120 h
half-life ([1]; retina of the dosed eye, 4.9 mg/mL (10 μL/eye)): 6.62 days
Suppression of VEGF‐induced fluorescein leakage in the posterior eye tissues [4]: failed to suppress
Concentration ([3]; cornea, nondosed eye): BLQ (<1) ng/g
Change in incidence of Grade 4 lesions between Day‐1 and Day35 (laser‐induced CNV): no significant difference
Binding to melanin (melanin): strongly binds to melanin
Clinical efficacy of eye‐drop formulation in neovascular AMD (neovascular AMD): lack of efficacy
Effect on angiogenesis and vascular hyperpermeability [5]: reduced angiogenesis and vascular hyperpermeability

Aflibercept: 40 mg/mL EYLEA Injection For Intravitreal Injection; anti‐VEGF agent, positive control
Percentage of Grade 4 lesion (laser‐induced CNV; Day 8, pazopanib eye‐drops 5.0 mg/mL four times daily): 4.2%
Percentage of Grade 4 lesion (laser‐induced CNV; Day 15, pazopanib eye‐drops 5.0 mg/mL four times daily): 4.2%
Percentage of Grade 4 lesion (laser‐induced CNV; Day 22, pazopanib eye‐drops 5.0 mg/mL four times daily): 4.2%
Percentage of Grade 4 lesion (laser‐induced CNV; Day 29, pazopanib eye‐drops 5.0 mg/mL four times daily): 4.2%
Change in incidence of Grade 4 lesions between Day‐1 and Day35 (laser‐induced CNV): significant efficacy had been maintained until Day35
